Assay: wn = mass fraction of the nth substance listed
Details: Gas, Steady Flow

[HH] [hydrogen] + N#N
binary diffusion coefficient [m2/s], w1 = 0.5
Details	250 K	300 K	350 K	400 K	500 K	600 K	700 K	800 K	900 K
100 kPa	5.86e-05	8e-05	0.000104	0.000131	0.000192	0.000261	0.00034	0.000427	0.000523
4000 kPa	1.52e-05	2.04e-05	2.68e-05	3.37e-05	4.95e-05	6.8e-05	8.8e-05	0.00011	0.000134
7000 kPa	8.8e-06	1.24e-05	1.63e-05	2.05e-05	3.01e-05	4.1e-05	5.32e-05	6.65e-05	8.11e-05
10000 kPa	6e-06	8.5e-06	1.13e-05	1.41e-05	2.07e-05	2.82e-05	3.65e-05	4.56e-05	5.55e-05
15000 kPa	4.21e-06	6e-06	7.9e-06	9.8e-06	1.45e-05	1.96e-05	2.51e-05	3.15e-05	3.8e-05

[HH] [hydrogen] + C
binary diffusion coefficient [m2/s], w1 = 0.5
Details	250 K	280 K	320 K	400 K	480 K	560 K	640 K	720 K	800 K	900 K
100 kPa	5.3e-05	6.6e-05	8.3e-05	0.000124	0.000173	0.000227	0.00029	0.00036	0.000434	0.00054
4000 kPa	1.32e-05	1.84e-05	2.31e-05	3.62e-05	5.1e-05	6.7e-05	8.4e-05	0.000106	0.000129	0.000159
7000 kPa	6.3e-06	8.5e-06	1.17e-05	1.82e-05	2.52e-05	3.43e-05	4.35e-05	5.4e-05	6.5e-05	8.1e-05
10000 kPa	3.8e-06	5.4e-06	7.5e-06	1.2e-05	1.72e-05	2.3e-05	2.93e-05	3.61e-05	4.41e-05	5.42e-05
15000 kPa	2.91e-06	4.05e-06	5.8e-06	9.5e-06	1.36e-05	1.79e-05	2.28e-05	2.81e-05	3.37e-05	4.11e-05

[HH] [hydrogen] + CC
binary diffusion coefficient [m2/s], w1 = 0.5
Details	250 K	280 K	320 K	400 K	480 K	560 K	640 K	720 K	800 K	900 K
100 kPa	4.29e-05	5.2e-05	6.5e-05	9.5e-05	0.000131	0.00017	0.000212	0.000261	0.000313	0.000382
3500 kPa	–	–	1.46e-05	2.53e-05	3.6e-05	4.81e-05	6.2e-05	7.6e-05	9.1e-05	0.00011
7000 kPa	–	–	3.3e-06	1.15e-05	1.75e-05	2.4e-05	3.1e-05	3.81e-05	4.61e-05	5.59e-05
10500 kPa	–	–	2.4e-06	6.8e-06	1.13e-05	1.58e-05	2.04e-05	2.52e-05	3e-05	3.72e-05
14000 kPa	–	–	2.21e-06	5e-06	8.6e-06	1.2e-05	1.58e-05	1.94e-05	2.33e-05	2.83e-05

[C-]#[O+] [carbon monoxide] + [HH]
binary diffusion coefficient [m2/s], w2 = 0.5
Details	250 K	300 K	350 K	400 K	500 K	600 K	700 K	800 K	900 K
100 kPa	5.6e-05	7.7e-05	0.000101	0.000127	0.000188	0.000258	0.000337	0.000425	0.000522
4000 kPa	1.32e-05	1.96e-05	2.58e-05	3.28e-05	4.84e-05	6.6e-05	8.7e-05	0.000109	0.000134
7000 kPa	8e-06	1.16e-05	1.52e-05	1.96e-05	2.89e-05	3.97e-05	5.14e-05	6.5e-05	7.9e-05
10000 kPa	5.6e-06	8.1e-06	1.09e-05	1.38e-05	2.03e-05	2.79e-05	3.63e-05	4.55e-05	5.58e-05
15000 kPa	4e-06	5.6e-06	7.4e-06	9.4e-06	1.42e-05	1.96e-05	2.63e-05	3.35e-05	4.2e-05

[HH] [hydrogen] + CCC
binary diffusion coefficient [m2/s], w1 = 0.5
Details	250 K	280 K	320 K	400 K	480 K	560 K	640 K	720 K	800 K	900 K
100 kPa	3.28e-05	4.01e-05	5e-05	7.4e-05	0.000101	0.000131	0.000164	0.0002	0.00024	0.000292
3500 kPa	–	–	–	1.6e-05	2.58e-05	3.56e-05	4.57e-05	5.63e-05	6.8e-05	8.3e-05
7000 kPa	–	–	–	4.5e-06	1.14e-05	1.7e-05	2.21e-05	2.78e-05	3.37e-05	4.24e-05
10500 kPa	–	–	–	2.98e-06	6.8e-06	1.07e-05	1.47e-05	1.83e-05	2.23e-05	2.83e-05
14000 kPa	–	–	–	2.72e-06	4.9e-06	7.89e-06	1.08e-05	1.37e-05	1.65e-05	2.04e-05
